Measured values reported in PubChem BioAssay (NCI).
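Grown in 96-well plates, cells were treated for 48 hours with each compound at five concentrations. Insufficient inhibition: endpoint recorded as highest concentration tested. TGI: total growth inhibition.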 *1 amine or outer side, *2 acyl side, *3 side chain or, on linkers, in order; H or OH if unused. Where a SMILES comes first, the peptide text is derived from it. Bridges are numbered along the chain shown (N, C = ends). Roman numbers before positions name the chains, in order. [ ]: non-standard residue; d: D form. Actinocin(9to1) = Cc1c2oc3c(C)ccc(C(=O)[*:1])c3nc-2c(C(=O)[*:2])c(N)c1=O; NMeV = CN[CH](C(=O)O)C(C)C; Sar = CNCC(=O)O

Columns and labels:
Assay in all cases: growth of human tumour cells (NCI), 48 h
[1] = system: DU-145 prostate
[2] = system: 786-0 renal
[3] = system: HL-60(TB) leukemia
[4] = system: SR leukemia
[5] = system: A498 renal
[6] = system: U251 CNS
[7] = system: RXF 393 renal
[8] = system: HCT-15 colon
[9] = system: HCT-116 colon
[10] = system: HOP-92 NSCLC

| SMILES | TGI [1] [µM] | TGI [2] [µM] | TGI [3] [µM] | TGI [4] [µM] | TGI [5] [µM] | TGI [6] [µM] | TGI [7] [µM] | TGI [8] [µM] | TGI [9] [µM] | TGI [10] [µM] |
| --- | --- | --- | --- | --- | --- | --- | --- | --- | --- | --- |
| COc1ccc(-c2c(N)n(-c3cccc(C(=O)O)c3)c(=O)c3cc([N+](=O)[O-])ccc23)cc1 | > 100 | > 100 | > 100 | > 100 | > 100 | > 100 | > 100 | > 100 | > 100 | – |
| CCOc1nc(-c2ccccc2)cc(-c2ccc(N3CCOCC3)cc2)c1C#N | > 100 | > 100 | > 100 | > 100 | > 100 | > 100 | > 100 | > 100 | > 100 | > 100 |
| COc1ccc(N=N/C(=N/NC(=O)c2ccccc2)c2ccc(N(CCC#N)CCC#N)cc2C)cc1 | > 100 | > 100 | > 100 | > 100 | > 100 | > 100 | > 100 | > 100 | > 100 | – |
| Cc1c2oc3c(C)ccc(C(=O)NC4C(=O)NC(C(C)O)C(=O)N5CCCC5C(=O)N(C)CC(=O)N(C)C(C(C)C)C(=O)OC4C)c3nc-2c(C(=O)NC2C(=O)NC(C(C)O)C(=O)N3CCCC3C(=O)N(C)CC(=O)N(C)C(C(C)C)C(=O)OC2C)c(N)c1=O (stereo not drawn) (I: TTP[Sar][NMeV] / II: TTP[Sar][NMeV]; ester I:1-I:C, II:1-II:C; linker I:N-II:N via Actinocin(9to1); configuration not given here) | > 100 | – | 5.12 | 0.047 | 2.71 | > 100 | 1.29 | > 100 | > 100 | – |
| Oc1ccc(SCc2cc(O)c(O)c(O)c2)cc1 | > 100 | > 100 | > 100 | > 100 | > 100 | > 100 | > 100 | > 100 | 34.2 | > 100 |
| CC[C@H](C)[C@H]1NC(=O)[C@@H](NC(=O)[C@@H](CC(C)C)N(C)CC2CCCN2C(=O)C(C)=O)[C@@H](C)OC(=O)[C@H](Cc2ccc(OC)cc2)N(C)C(=O)C2CCCN2C(=O)[C@H](CC(C)C)NC(=O)[C@@H](C)C(=O)[C@H](C(C)C)OC(=O)C[C@@H]1O (stereo partly drawn) | 0.0032 | 0.0118 | 0.021 | 0.00471 | 0.0146 | 0.00534 | 0.00299 | 0.73 | 0.0102 | 0.0292 |
| COC(=O)n1c(=O)n(-c2ccccc2)c(=O)n1C(=O)OC | > 100 | > 100 | > 100 | > 100 | > 100 | > 100 | > 100 | > 100 | > 100 | – |
| [N-]=[N+]=CC(=O)OCC1SCCCS1 | > 100 | > 100 | > 100 | > 100 | > 100 | > 100 | > 100 | > 100 | > 100 | > 100 |
| C=CCSC1=N/C(=C\c2ccccc2)C(=O)N1CC=C | > 100 | > 100 | 18.7 | > 61.6 | 83.9 | > 100 | 60.6 | > 100 | > 100 | > 78.1 |
| CN(NC(=O)CCCl)C1=NCCCCN1 | > 100 | > 100 | > 100 | > 100 | > 100 | > 100 | > 100 | > 100 | > 100 | > 100 |
| O=C1c2c(nc3ccccc3c2-c2ccccc2)CN1Nc1ccccn1 | > 100 | > 93.1 | > 100 | > 100 | 18.1 | > 100 | > 100 | > 100 | > 100 | > 79.4 |
| O=c1c2cc(I)ccc2nc(Sc2ncccc2[N+](=O)[O-])n1Cc1ccccc1 | > 100 | > 100 | 2.02 | > 100 | > 100 | > 100 | > 100 | > 100 | > 100 | 77.6 |
| CC(C)(C)C1(COC(=O)c2ccc(N)cc2)COC1 | > 100 | > 100 | > 100 | > 100 | > 100 | > 100 | > 100 | > 100 | > 100 | > 100 |
| [N-]=[N+]=NCc1cccc(Nc2cc(=O)[nH]c(=O)[nH]2)c1 | > 100 | > 100 | > 100 | > 100 | > 100 | – | > 100 | > 100 | > 100 | > 100 |
| CSc1c(C#N)c(=O)[nH]c2n[nH]c(C)c12 | > 100 | > 100 | > 100 | > 100 | > 100 | > 100 | > 100 | > 100 | > 100 | – |
